The test system of one experiment is E. coli 14. It counts as cell-based. To be noted: E. coli 14; 24 hours, 37°C.
Another experiment concerns E. coli A 261. In words: MIC, test tube series dilution test, E. coli A 261. It counts as cell-based. To be noted: 24 hours, 37°C.
For the next experiment, the system named is E. coli C 165. In words: MIC, test tube series dilution test, E. coli C 165. Type of experiment: cell-based. The settings on record: 24 hours, 37°C.
The test system of another experiment is E. coli 183/58. The experiment can be described thus: MIC, test tube series dilution test, E. coli 183/58. It counts as cell-based. To be noted: 24 hours, 37°C.
Another experiment has as its system Proteus morg. 932. The experiment can be described thus: MIC, test tube series dilution test, Proteus morg. 932. Type of experiment: cell-based. The settings on record: 24 hours, 37°C.
The test system of the next experiment is Proteus vulg. 1017. It counts as cell-based, Proteus vulgaris. The settings on record: Proteus 1017; 24 hours, 37°C.
Another experiment relates to Psdm. aerug. F 41. In words: MIC, test tube series dilution test, Psdm. aerug. F 41. It counts as cell-based, Pseudomonas aeruginosa. The settings on record: Psdm. aerug. F 41; 24 hours, 37°C.
In another experiment the test system is Psdm. aerug. Walter. The experiment can be described thus: MIC, test tube series dilution test, Psdm. aerug. Walter. It counts as cell-based, Pseudomonas aeruginosa. To be noted: Psdm. aerug. Walter; 24 hours, 37°C.
In another experiment the test system is Klebsiella K 10. In words: MIC, test tube series dilution test, Klebsiella K 10. It counts as cell-based. To be noted: 24 hours, 37°C.
A further experiment relates to Klebsiella 63. The experiment can be described thus: MIC, test tube series dilution test, Klebsiella 63. Type of experiment: cell-based. To be noted: Klebsiella 63; 24 hours, 37°C.
The test system of a further experiment is Staph. aureus 1756. The experiment can be described thus: MIC, test tube series dilution test, Staph. aureus 1756. Type of experiment: cell-based, Staphylococcus aureus. The settings on record: Staph. aureus 1756; 24 hours, 37°C.
The test system of the next experiment is Staph. aureus 133. It counts as cell-based, Staphylococcus aureus. The settings on record: Staph. aureus 133; 24 hours, 37°C.
In the next experiment the test system is Enterococcus 9790. In words: MIC, test tube series dilution test, Enterococcus 9790. It counts as cell-based. To be noted: 24 hours, 37°C.

Turning to `CC1(C)S[C@@H]2[C@H](NC(=O)[C@H](N)c3ccccc3)C(=O)N2[C@H]1C(=O)O` [Ampicillin, D(-)-α-aminobenzylpenicillin, reference compound], the MIC against E. coli 14 is recorded as greater than 1 U/ml; against E. coli A 261, 8 U/ml; with E. coli C 165, 8 U/ml; in the experiment with E. coli 183/58, 200 U/ml; with Proteus morg. 932, 256 U/ml; against Proteus vulg. 1017, 256 U/ml. The MIC in the experiment with Psdm. aerug. F 41 is greater than 256 U/ml; with Psdm. aerug. Walter it was greater than 256 U/ml; against Klebsiella K 10 it was 128 U/ml; against Klebsiella 63 it was 128 U/ml; against Staph. aureus 1756 it was 256 U/ml; against Staph. aureus 133, less than 1 U/ml. Moreover, the MIC with Enterococcus 9790 was found to be 4 U/ml.
As to `CC1(C)S[C@@H]2[C@H](NC(=O)[C@H](NC(=O)c3ccc(NC(=O)C4CCC4)cc3)c3ccccc3)C(=O)N2[C@H]1C(=O)O` [Example 5, sodium D(-)-α-(4-cyclobutanecarbonylaminobenzoylamino)-benzylpenicillin], the MIC is 8 U/ml against E. coli 14; greater than 256 U/ml against E. coli A 261; 16 U/ml against E. coli C 165; 32 U/ml with E. coli 183/58; 256 U/ml against Proteus morg. 932; 32 U/ml in the experiment on Proteus vulg. 1017. In addition, the MIC in the experiment with Psdm. aerug. F 41 was 64 U/ml; with Psdm. aerug. Walter, 64 U/ml; against Klebsiella K 10, 128 U/ml; against Klebsiella 63 it was 64 U/ml; in the experiment on Staph. aureus 1756, 32 U/ml; against Staph. aureus 133, less than 1 U/ml. Also, in the experiment on Enterococcus 9790, the MIC is on record as 16 U/ml.
On to `CC1(C)S[C@@H]2[C@H](NC(=O)[C@H](NC(=O)c3ccc(NC(=O)C4=CCCCC4)cc3)c3ccccc3)C(=O)N2[C@H]1C(=O)O` [Example 11, sodium D(-)-α-[4-(1-cyclohexene-1-carbonylamino-benzoylamino)]-benzylpenicillin], for which the MIC with E. coli 14 is 4 U/ml; in the experiment with E. coli A 261 it was greater than 256 U/ml; against E. coli C 165, 8 U/ml; with E. coli 183/58, 8 U/ml; in the experiment with Proteus morg. 932 it was 128 U/ml; with Proteus vulg. 1017 it was 64 U/ml. Also, the MIC against Psdm. aerug. F 41 is listed as 32 U/ml; against Psdm. aerug. Walter, 32 U/ml; against Klebsiella K 10, 64 U/ml; against Klebsiella 63, 32 U/ml; against Staph. aureus 1756, 128 U/ml; against Staph. aureus 133, less than 1 U/ml. The MIC in the experiment with Enterococcus 9790 stood at 16 U/ml.
For `CC1(C)S[C@@H]2[C@H](NC(=O)[C@H](NC(=O)c3ccc(NC(=O)C4CCC=CCC4)cc3)c3ccccc3)C(=O)N2[C@H]1C(=O)O` [Example 14, sodium D(-)-α-[4-(4-cycloheptene-1-carbonylamino-benzoylamino)]-benzylpenicillin], the MIC is less than 1 U/ml against E. coli 14; greater than 256 U/ml in the experiment with E. coli A 261; ~ 8 U/ml in the experiment with E. coli C 165; 16 U/ml in the experiment with E. coli 183/58; 256 U/ml in the experiment on Proteus morg. 932; 16 U/ml in the experiment on Proteus vulg. 1017. Moreover, the MIC is listed as 32 U/ml in the experiment on Psdm. aerug. F 41; 32 U/ml in the experiment on Psdm. aerug. Walter; 32 U/ml in the experiment on Klebsiella K 10; 32 U/ml with Klebsiella 63; 32 U/ml in the experiment on Staph. aureus 1756; less than 1 U/ml in the experiment with Staph. aureus 133. The compound also had an MIC in the experiment with Enterococcus 9790 of 8 U/ml.
Regarding `COc1ccc(C(=O)Nc2ccc(C(=O)N[C@@H](C(=O)N[C@@H]3C(=O)N4[C@@H]3SC(C)(C)[C@@H]4C(=O)O)c3ccccc3)cc2)cc1` [Example 16], the MIC is ~ 1 U/ml with E. coli 14; greater than 256 U/ml against E. coli A 261; 8 U/ml with E. coli C 165; 8 U/ml in the experiment with E. coli 183/58; 256 U/ml in the experiment on Proteus morg. 932; 64 U/ml against Proteus vulg. 1017. Further, the MIC was 16 U/ml against Psdm. aerug. F 41; 16 U/ml in the experiment on Psdm. aerug. Walter; 32 U/ml against Klebsiella K 10; 16 U/ml against Klebsiella 63; 64 U/ml in the experiment with Staph. aureus 1756; less than 1 U/ml in the experiment with Staph. aureus 133. The MIC against Enterococcus 9790 was found to be 8 U/ml.

The values above are taken from patent publication US4001218A, “Penicillins” (Bayer Aktiengesellschaft, priority 1972, dated 1977).
